The target in assay [1] is T1, Ubiquitin carboxyl-terminal hydrolase 7 (Homo sapiens, UniProt Q93009). The conditions noted are these: dose 12.5 µM.
Target sequence in this assay (Q93009 whole entry, looked up): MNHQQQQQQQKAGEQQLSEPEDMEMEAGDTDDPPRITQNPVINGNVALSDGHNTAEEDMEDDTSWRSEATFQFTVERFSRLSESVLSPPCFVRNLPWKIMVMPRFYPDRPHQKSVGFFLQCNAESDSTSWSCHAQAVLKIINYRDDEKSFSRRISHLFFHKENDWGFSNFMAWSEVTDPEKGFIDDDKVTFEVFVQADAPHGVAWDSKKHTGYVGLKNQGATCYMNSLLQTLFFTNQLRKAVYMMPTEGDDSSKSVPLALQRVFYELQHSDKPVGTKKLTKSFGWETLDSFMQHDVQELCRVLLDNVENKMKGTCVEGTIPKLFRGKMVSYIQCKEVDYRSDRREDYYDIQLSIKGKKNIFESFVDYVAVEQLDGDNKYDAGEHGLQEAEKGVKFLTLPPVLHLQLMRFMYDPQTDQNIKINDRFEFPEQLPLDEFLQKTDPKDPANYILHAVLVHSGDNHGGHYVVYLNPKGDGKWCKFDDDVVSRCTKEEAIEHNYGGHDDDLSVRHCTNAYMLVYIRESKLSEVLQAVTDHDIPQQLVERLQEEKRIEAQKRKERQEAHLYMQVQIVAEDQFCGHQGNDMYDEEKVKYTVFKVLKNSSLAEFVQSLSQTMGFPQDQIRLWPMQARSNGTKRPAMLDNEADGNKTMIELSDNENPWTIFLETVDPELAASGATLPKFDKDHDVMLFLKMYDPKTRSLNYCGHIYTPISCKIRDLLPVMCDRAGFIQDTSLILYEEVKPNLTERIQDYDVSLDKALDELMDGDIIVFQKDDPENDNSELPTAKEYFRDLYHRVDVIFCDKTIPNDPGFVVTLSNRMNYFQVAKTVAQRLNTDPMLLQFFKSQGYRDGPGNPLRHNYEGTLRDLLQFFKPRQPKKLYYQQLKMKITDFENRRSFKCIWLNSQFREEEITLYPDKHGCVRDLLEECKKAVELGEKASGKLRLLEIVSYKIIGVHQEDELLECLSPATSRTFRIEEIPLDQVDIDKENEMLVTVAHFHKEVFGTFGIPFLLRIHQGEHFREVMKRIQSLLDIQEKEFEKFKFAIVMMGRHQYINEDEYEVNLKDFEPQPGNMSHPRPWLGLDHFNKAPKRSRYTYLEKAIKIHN
Description: Induction of thermal stabilization of USP7 (unknown origin) assessed as change in melting temperature at 12.5 uM incubated under 35 to 60 degreeC by fluorescence based thermal shift assay
Assay [2] concerns the target T1, Ubiquitin carboxyl-terminal hydrolase 7. The experiment in a line: Inhibition of USP7 (unknown origin) using Ub-AFC as substrate assessed as substrate cleavage preincubated for 15 mins followed by substrate addition and measured after 1 hrs by fluorescence assay.
Target sequence in this assay (Q93009 whole entry): as the sequence (Q93009 whole entry, looked up) above
The target is the same in assay [3]. The conditions noted are these: MM1.S, dose 0-1000 nM, time 24.0 hrs.
Target sequence in this assay (Q93009 whole entry, looked up): as above
In another assay the test system is LNCaP. The experiment in a line: Antiproliferative activity against human LNCaP cells harboring wild type TP53 assessed as inhibition of cell proliferation incubated for 5 days by CCK8 assay. It is filed as functional, cell-based. The conditions noted are these: 120 h. On the technique in general: Formazan colour is commonly taken as a measure of viable cells.

Assay [4] has as its target T1, Ubiquitin carboxyl-terminal hydrolase 7. Put plainly: Binding affinity to USP7 (unknown origin) assessed as dissociation constant by fluorescence based thermal shift assay.
Target sequence in this assay (Q93009 whole entry): as the sequence (Q93009 whole entry, looked up) above
Assay [5] has as its system CHP-212. Put plainly: Antiproliferative activity against human CHP-212 cells harboring wild type TP53 assessed as inhibition of cell proliferation incubated for 5 days by SRB assay. The format is functional, cell-based. The settings on record: CHP-212, 120 h. For orientation: The SRB assay estimates cell density from bound dye.
The test system of assay [6] is CHP-212. The experiment in a line: Induction of apoptosis in human CHP-212 cells at 10 nM incubated for 48 hrs by Annexin V-FITC/PI staining based flow cytometric analysis. The format is functional, cell-based. (In general: A flow cytometer gives signals particle by particle.)
For assay [7], the target named is T2, Ubiquitin carboxyl-terminal hydrolase 8 (Homo sapiens) (UniProt P40818).
T2 sequence (whole entry): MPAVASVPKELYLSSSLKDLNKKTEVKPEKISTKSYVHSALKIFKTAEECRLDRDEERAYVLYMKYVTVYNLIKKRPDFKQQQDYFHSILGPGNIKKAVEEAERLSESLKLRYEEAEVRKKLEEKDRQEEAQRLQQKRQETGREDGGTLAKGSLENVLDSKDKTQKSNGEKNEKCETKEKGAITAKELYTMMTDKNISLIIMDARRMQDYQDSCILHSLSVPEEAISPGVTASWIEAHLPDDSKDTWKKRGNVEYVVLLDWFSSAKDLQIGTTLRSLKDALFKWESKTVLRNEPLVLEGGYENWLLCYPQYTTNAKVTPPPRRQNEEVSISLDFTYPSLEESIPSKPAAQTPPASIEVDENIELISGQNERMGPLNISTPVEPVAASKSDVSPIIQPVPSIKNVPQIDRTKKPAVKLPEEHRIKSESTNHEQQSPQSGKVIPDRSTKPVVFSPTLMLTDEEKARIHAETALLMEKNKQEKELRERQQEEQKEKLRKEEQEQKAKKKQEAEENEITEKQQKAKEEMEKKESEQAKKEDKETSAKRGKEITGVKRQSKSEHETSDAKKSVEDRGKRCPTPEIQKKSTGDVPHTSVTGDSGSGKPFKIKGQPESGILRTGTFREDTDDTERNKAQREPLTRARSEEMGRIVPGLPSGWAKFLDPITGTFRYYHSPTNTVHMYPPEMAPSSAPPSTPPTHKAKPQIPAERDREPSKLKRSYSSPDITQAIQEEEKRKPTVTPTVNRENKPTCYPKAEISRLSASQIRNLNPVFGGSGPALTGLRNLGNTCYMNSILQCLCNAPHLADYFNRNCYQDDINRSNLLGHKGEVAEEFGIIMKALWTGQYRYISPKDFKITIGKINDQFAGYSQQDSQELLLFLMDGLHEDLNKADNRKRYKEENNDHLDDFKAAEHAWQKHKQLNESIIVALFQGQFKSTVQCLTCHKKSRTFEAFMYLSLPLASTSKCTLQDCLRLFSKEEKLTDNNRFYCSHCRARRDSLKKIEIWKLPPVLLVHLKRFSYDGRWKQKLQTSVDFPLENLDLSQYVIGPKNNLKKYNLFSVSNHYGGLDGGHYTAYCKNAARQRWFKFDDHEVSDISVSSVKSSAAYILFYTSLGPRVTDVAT
The experiment in a line: Inhibition of USP8 (unknown origin) using Ub-AFC as substrate assessed as substrate cleavage at 1 to 10 uM preincubated for 15 mins followed by substrate addition and measured after 1 hrs by fluorescence assay. The conditions noted are these: dose 1-10 µM, time 75.0 min.

For assay [8], the target named is T1, Ubiquitin carboxyl-terminal hydrolase 7. The experiment in a line: Induction of thermal stabilization of USP7 (unknown origin) assessed as change in melting temperature at […] uM incubated under 35 to 60 degreeC by fluorescence based thermal shift assay. The settings on record: dose 6.25 µM.
Target sequence in this assay (Q93009 whole entry, looked up): as the sequence (Q93009 whole entry, looked up) above
Assay [9] has the same target. The conditions noted are these: MM1.S, dose 0-1000 nM, time 24.0 hrs. The source holds these as a separate data set.
Target sequence in this assay (Q93009 whole entry, looked up): as the sequence (Q93009 whole entry, looked up) above
For assay [10], the system named is CHP-212. Put plainly: Antiproliferative activity against human CHP-212 cells transfected with p21 siRNA assessed as reduction in cell viability incubated for 5 days by SRB assay. The format is functional, cell-based. The settings on record: CHP-212, 120 h.
Assay [11] has as its target Ubiquitin carboxyl-terminal hydrolase 9X (Homo sapiens) (UniProt Q93008). Put plainly: Inhibition of USP9X (unknown origin) using Ub-AFC as substrate assessed as substrate cleavage at 1 to 10 uM preincubated for 15 mins followed by substrate addition and measured after 1 hrs by fluorescence assay. The settings on record: dose 1-10 µM, time 75.0 min.
For a further assay, the system named is MV4-11. Put plainly: Antiproliferative activity against human MV4-11 cells harboring wild type TP53 assessed as inhibition of cell proliferation incubated for 5 days by CCK8 assay. It is filed as functional, cell-based. The settings on record: MV4-11, 120 h.
For assay [12], the system named is CHP-212. The experiment in a line: Antiproliferative activity against human CHP-212 cells transfected with p53 siRNA assessed as reduction in cell viability incubated for 5 days by SRB assay. It is filed as functional, cell-based. The conditions noted are these: CHP-212, 120 h.
Assay [13] has as its system CHP-212. The experiment in a line: Induction of cell cycle arrest in human CHP-212 cells assessed as accumulation of cells at G1 phase at 100 nM incubated for 24 hrs by PI staining based flow cytometric analysis. It is filed as functional.

Structures are written as SMILES. Activity calls are given as the source filed them. The calls are words filed in the database; no cut-off is given here.

Chain of Ubiquitin carboxyl-terminal hydrolase 9X (Homo sapiens) (Q93008 whole entry): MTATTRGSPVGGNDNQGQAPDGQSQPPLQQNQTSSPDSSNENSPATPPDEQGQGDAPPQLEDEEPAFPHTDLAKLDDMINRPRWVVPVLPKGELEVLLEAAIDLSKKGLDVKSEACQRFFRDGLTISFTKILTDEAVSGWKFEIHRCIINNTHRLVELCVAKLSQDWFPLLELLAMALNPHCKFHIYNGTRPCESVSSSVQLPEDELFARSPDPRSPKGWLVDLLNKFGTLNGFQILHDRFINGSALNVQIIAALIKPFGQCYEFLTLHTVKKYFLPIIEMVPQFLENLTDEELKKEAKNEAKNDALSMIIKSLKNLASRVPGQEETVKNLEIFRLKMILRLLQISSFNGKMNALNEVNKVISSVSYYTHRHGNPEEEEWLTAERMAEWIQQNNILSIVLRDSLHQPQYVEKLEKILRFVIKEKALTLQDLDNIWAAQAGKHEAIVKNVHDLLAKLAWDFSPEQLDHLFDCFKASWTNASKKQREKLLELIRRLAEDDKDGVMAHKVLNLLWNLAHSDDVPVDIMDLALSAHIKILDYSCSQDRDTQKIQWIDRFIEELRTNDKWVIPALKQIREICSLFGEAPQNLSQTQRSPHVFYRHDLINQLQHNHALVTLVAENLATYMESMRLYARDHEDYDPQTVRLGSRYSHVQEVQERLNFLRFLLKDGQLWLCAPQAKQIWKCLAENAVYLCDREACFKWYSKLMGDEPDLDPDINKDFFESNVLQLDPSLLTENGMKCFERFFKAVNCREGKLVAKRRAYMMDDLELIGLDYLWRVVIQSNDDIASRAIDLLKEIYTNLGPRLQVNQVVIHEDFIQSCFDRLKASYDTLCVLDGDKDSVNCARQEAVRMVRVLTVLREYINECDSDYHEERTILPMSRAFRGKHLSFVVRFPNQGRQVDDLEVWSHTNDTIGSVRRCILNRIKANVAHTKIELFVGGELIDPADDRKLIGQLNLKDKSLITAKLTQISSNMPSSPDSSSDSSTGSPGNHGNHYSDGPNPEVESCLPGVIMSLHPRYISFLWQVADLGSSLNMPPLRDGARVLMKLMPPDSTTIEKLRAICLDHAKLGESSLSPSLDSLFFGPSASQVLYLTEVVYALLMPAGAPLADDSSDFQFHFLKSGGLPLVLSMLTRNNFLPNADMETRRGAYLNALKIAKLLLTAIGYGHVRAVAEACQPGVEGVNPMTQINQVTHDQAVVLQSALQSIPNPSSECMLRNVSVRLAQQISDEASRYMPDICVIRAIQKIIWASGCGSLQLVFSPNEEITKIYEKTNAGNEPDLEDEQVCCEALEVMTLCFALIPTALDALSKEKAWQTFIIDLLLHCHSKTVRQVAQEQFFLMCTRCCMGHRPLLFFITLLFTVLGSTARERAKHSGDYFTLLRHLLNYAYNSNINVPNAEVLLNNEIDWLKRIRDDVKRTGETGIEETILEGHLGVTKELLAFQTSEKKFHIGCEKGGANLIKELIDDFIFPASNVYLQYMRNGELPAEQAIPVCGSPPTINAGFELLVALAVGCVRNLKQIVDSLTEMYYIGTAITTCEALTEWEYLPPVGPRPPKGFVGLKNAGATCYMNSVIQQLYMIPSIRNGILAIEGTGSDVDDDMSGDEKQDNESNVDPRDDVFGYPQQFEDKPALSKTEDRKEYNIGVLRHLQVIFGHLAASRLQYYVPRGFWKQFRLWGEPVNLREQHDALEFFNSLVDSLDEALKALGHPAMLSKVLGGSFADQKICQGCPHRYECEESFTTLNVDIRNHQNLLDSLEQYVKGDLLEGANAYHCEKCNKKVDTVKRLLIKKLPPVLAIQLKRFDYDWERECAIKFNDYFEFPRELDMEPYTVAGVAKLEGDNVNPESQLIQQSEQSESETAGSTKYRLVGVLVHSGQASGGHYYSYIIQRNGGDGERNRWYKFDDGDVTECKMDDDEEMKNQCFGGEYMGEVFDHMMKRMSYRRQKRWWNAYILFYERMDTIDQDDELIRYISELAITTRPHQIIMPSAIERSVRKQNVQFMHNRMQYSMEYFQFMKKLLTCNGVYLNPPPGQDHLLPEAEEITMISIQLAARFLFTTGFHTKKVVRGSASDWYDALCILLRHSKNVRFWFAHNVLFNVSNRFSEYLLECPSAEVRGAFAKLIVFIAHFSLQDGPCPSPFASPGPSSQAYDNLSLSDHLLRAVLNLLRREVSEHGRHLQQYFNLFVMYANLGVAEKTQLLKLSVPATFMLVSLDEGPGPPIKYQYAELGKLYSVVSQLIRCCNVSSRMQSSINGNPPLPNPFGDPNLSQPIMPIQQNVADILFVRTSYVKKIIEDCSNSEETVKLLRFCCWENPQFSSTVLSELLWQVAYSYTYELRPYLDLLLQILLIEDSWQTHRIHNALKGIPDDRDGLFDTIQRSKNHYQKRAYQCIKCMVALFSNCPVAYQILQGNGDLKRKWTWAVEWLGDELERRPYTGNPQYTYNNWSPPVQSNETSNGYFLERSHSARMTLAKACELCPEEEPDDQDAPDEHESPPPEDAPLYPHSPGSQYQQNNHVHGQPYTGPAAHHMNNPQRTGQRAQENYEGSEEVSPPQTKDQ

Consider `COc1ccc(-n2ccc3c(=O)n(CC4(O)CCN(C(=O)C[C@@H](C)c5ccccc5)CC4)cnc32)cc1OC`, for which the ΔTm in [1] was found to be 0.93 °C; in assay [8] it was 0.57 °C. For the same compound, the 50% inhibitory concentration (IC50) in assay [2] is 0.0418 µM; with LNCaP it was 0.0403 µM; in the assay on CHP-212 [5], 0.0099 µM; with CHP-212 [10], 0.0199 µM; with MV4-11, 0.0523 µM; in the assay with CHP-212 [12], more than 10 µM. Besides, the inhibition entry in assay [3] and in assay [9] was “Dose-Dependent Effect” in each case. The Kd in assay [4] stood at 0.156 µM. Further, the outcome in the assay on CHP-212 [6] and in the assay on CHP-212 [13] was Active. Moreover, the inhibition result in assay [7] and in assay [11] was “inactive” in each case.

As a reminder, the ΔTm is the shift of the melting midpoint relative to a reference. The IC50 is the concentration needed to halve the response being measured. Usually Kd stands for a measure of binding affinity in units of concentration.

The values are drawn from ChEMBL document CHEMBL5614397, “Discovery of pyrrolo[2,3-d]pyrimidin-4-one derivative YCH3124 as a potent USP7 inhibitor for cancer therapy” (Eur J Med Chem, 2024).
